Measured values reported in ChEMBL document CHEMBL1132208, “Molecular hashkeys: a novel method for molecular characterization and its application for predicting important pharmaceutical properties of molecules” (J Med Chem, 1999).

System: Homo sapiens
Assay: Percent of the drug absorbed after administration to humans was determined
Format: ADME, organism-based
Details: in vivo

C=CCc1ccccc1OCC(O)CNC(C)C (stereo not drawn) [ALPRENOLOL]
Absorption: 96%

Cc1cc(=O)n(-c2ccccc2)n1C [ANTIPYRINE]
Absorption: 97%

O=C(O)P(=O)(O)O [FOSCARNET]
Absorption: 17%

OC[C@H]1O[C@@H](O[C@@H]2[C@@H](CO)O[C@](O)(CO)[C@H]2O)[C@H](O)[C@@H](O)[C@H]1O [LACTULOSE]
Absorption: 0.6%

OC[C@@H](O)[C@@H](O)[C@H](O)[C@H](O)CO [MANNITOL]
Absorption: 26%

Cc1ccccc1N1C(=O)c2cc(S(N)(=O)=O)c(Cl)cc2NC1C (stereo not drawn) [METOLAZONE]
Absorption: 64%

O=C(O)c1cc(/N=N/c2ccc(O)c(C(=O)O)c2)ccc1O [OLSALAZINE]
Absorption: 2.3%

C=CCOc1ccccc1OCC(O)CNC(C)C (stereo not drawn) [OXPRENOLOL]
Absorption: 97%

CC(C)NCC(O)COc1cccc2[nH]ccc12 (stereo not drawn) [PINDOLOL]
Absorption: 92%

OC[C@H]1O[C@H](OC[C@H]2O[C@H](O[C@]3(CO)O[C@H](CO)[C@@H](O)[C@@H]3O)[C@H](O)[C@@H](O)[C@@H]2O)[C@H](O)[C@@H](O)[C@H]1O [RAFFINOSE]
Absorption: 0.3%

O=C(O)c1cc(/N=N/c2ccc(S(=O)(=O)Nc3ccccn3)cc2)ccc1O [SULFASALAZINE]
Absorption: 12%

CCN1CCCC1CNC(=O)c1cc(S(N)(=O)=O)ccc1OC (stereo not drawn) [SULPIRIDE]
Absorption: 36%

NC[C@H]1CC[C@H](C(=O)O)CC1 [TRANEXAMIC ACID]
Absorption: 55%
